# pEC50, pIC50: −log10 of the molar value.
# Legend:
# GTPase KRas [1] = target: T1, GTPase KRas (Homo sapiens, UniProt P01116, G12C); assay: Inhibition of KRAS G12C mutant (2 to 188 residues) (unknown origin) expressed in Escherichia coli assessed as inhibition of SOS mediated nucleotide exchange at 21 degreeC for 15 mins by HTRF assay
# GTPase KRas [2] = target: T1, GTPase KRas; assay: Inhibition of KRAS G12C mutant (2 to 188 residues) (unknown origin) expressed in Escherichia coli assessed as inhibition of SOS mediated nucleotide exchange at 4 degreeC for 18 hrs by HTRF assay
# GTPase KRas [3] = target: T1, GTPase KRas; assay: Inhibition of KRAS G12C mutant in human HCC1171 cells assessed as effect on cell alkylation measured after 18 hrs by western blot analysis; format: cell-based
# GTPase KRas [4] = target: T1, GTPase KRas; assay: Inhibition of KRAS G12C mutant (2 to 188 residues) (unknown origin) expressed in Escherichia coli assessed as inhibition of SOS mediated nucleotide exchange measured after 18 hrs by HTRF assay
Structure (SMILES),pEC50 (GTPase KRas [3]),pIC50 (GTPase KRas [4]),pIC50 (GTPase KRas [1]),pIC50 (GTPase KRas [2])
C=CC(=O)N1CCN(c2nc(OC[C@@H]3CCCN3C)nc3c2CC[C@]2(CCc4ccccc4C2)C3)C[C@@H]1CC#N,,,6.88,7.22
C=CC(=O)N1CCN(c2nc(OC[C@@H]3CCCN3C)nc3c2CCC2(CCc4ccccc4C2)C3)C[C@@H]1CC#N (stereo partly specified),,,6.85,7.34
C=CC(=O)N1CCN(c2nc(OC[C@@H]3CCCN3C)nc3c2CC[C@@]2(CCc4ccccc4C2)C3)C[C@@H]1CC#N,,,6.54,7.29

# Further lines, with some results ahead:
pEC50 (GTPase KRas [3]),pIC50 (GTPase KRas [4]),Structure (SMILES),pIC50 (GTPase KRas [1]),pIC50 (GTPase KRas [2])
> 8.21,,C=CC(=O)N1CCN(c2nc(OC[C@@H]3CCCN3C)nc3c2C[C@@H](C)[C@H](c2cc(O)cc4ccccc24)C3)[C@@H](C)C1,,
5.52,6.33,C=CC(=O)N1CCN(c2nc(OCc3cn(C)cn3)nc3c2CC[C@H](c2cc(O)cc4ccccc24)C3)[C@@H](C)C1,,
7.40,7.96,C=CC(=O)N1CCN(c2nc(OC[C@@H]3C[C@H](F)CN3C)nc3c2C[C@@H](C)[C@H](c2cc(O)cc4ccccc24)C3)[C@@H](C)C1,,
